Reference: patent US20220356398A1, “Composition and Method for Improving the Water Transport Characteristics of Hydrophobic Soils” (Ethox Chemicals, LLC, priority 2021, published 2022)

Assays:
[1] = Humic acid removal (detergency)
Source text: (§1) Soil treatment polymers are relatively non-polar organic materials with limited water solubility.

[2] = Compatibility with the soil treatment polymers; format: physicochemical
Source text: as §1

monophosphate of POE (6) decyl alcohol
humic acid removal properties [1]: good humic acid removal properties | compatibility with the soil treatment polymers [2]: good compatibility
